Data on one compound can be found in patent publication US12344599B2, “Prodigiosin analogs and methods of use” (Institute For Cancer Research, priority 2016, dated 2025).

For one experiment, the system named is panel of CRC cell lines. Description: Colony formation assay (long-term cell proliferation). Format: cell-based, human. The note with it: low dose. On the procedure: Five hundred cells were seeded per well in 6-well plates and treated with different concentrations of compounds for 24 hours, then, cells were cultured with drug-free complete medium for 2 weeks with fresh medium changed every 7 days. Cells were fixed with 10% formalin and stained with 0.05% crystal violet at the end of 2 weeks period of cell culture (Franken et al., Nat. Protoc., 2006, 1, 2315-9).

For experiment [1], the system named is ATF4 and CHOP in DLD1 cells. Description: Western blot of ATF4 and CHOP, DLD1. Format: cell-based, human. As for the experimental part:
• 1) Cell lines: HT29, SW480, DLD-1, HCT116, and p53-null HCT116 cells, H1975, MDA-MD-231, U251, FaDu, CAL-27, PANC-1, Aspc-1, and MRC5 were obtained from the ATCC and cultured as recommended. Cells were regularly authenticated by bioluminescence, growth, and morphologic observation. The cells were routinely examined for Mycoplasma and all cell lines underwent STR authentication. • 2) Western blotting: After treatment, protein lysates were collected for Western blot analysis. 15 μg of protein was used for SDS-PAGE. After primary and secondary antibody incubations, the signal was detected by chemiluminescent detection kit, imaged by Syngene (Imgen Technologies). […] The cell viability was assessed by CellTiterGlo bioluminescent cell proliferation assay (Promega), following the manufacturer's protocol. Bioluminescence imaging was measured using the IVIS imager. Percentage of cell viability (mean±SEM) at each dose was calculated against the respective DMSO control. The IC50 values were determined from the sigmoidal dose-response curves using GraphPad Prims4. • 4) Caspase activity assay: Cells were seeded in 96-well plate (1×10^4 cells/well). […] The caspase 3/7 activity was assessed by Caspase-Glo® 3/7 Assay kit (Promega), following the manufacturer's protocol. Bioluminescence imaging was measured using the IVIS imager. […]
For orientation: Immunoblotting shows a protein as a band on a membrane.

For the compound `CCCCCCCCOC(=O)CCc1c(C)[nH]c(/C=C2\N=C(c3ccc[nH]3)C=C2OC)c1C` [PG3-Oc, Octyl (Z)-3-(5-((4′-methoxy-1H,5′H-[2,2′-bipyrrol]-5′-ylidene)methyl)-2,4-dimethyl-1H-pyrrol-3-yl)propanoate], the “inhibition in long-term cell proliferation” value in the experiment with panel of CRC cell lines was “Over 90%”. Also, in experiment [1], the “concentration at which induction of ATF4 and CHOP occurred” value was found to be 5 µM.
